Test results taken from patent US20250197387A1, “BCL-XL DEGRADERS AND USES THEREOF” (Kymera Therapeutics, Inc., priority 2021, published 2025).
pIC50: −log10 of the molar value.

Tests used:
Format in all cases: cell-based
BCL-XL = molecular target: T1, BCL-XL (Homo sapiens, UniProt Q07817); experiment: Bcl-xL ELISA degradation in MOLT-4 cells, 6 h; details: for DC50: read-out: Bcl-xL ELISA in MOLT-4 degradation 6 h: Mean external-Abs DC50
T1 construct: endogenous in cells; host or cells: MOLT-4
Protocol: The letter codes for BCL-XL DC50 include: A (<0.01 μM); B (0.01-0.1 μM); C (>[…]); D (>0.5-1.0 μM); and E (>1.0 μM). The letter codes for Dmax % include A (>75%); B (50 to 75%); C (<50%).

MOLT-4 cells = experiment: CTG (CellTiter-Glo) cell viability assay, MOLT-4; details: Homo sapiens, MOLT-4, 72 h, 3 day incubation, read-out: CTG Cell Viability Assay - MOLT-4 3 day: Average external-IC50
How it was run: (§1)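 IC50 is from a three-parameter logistic fit of CellTiter-Glo luminescence after 3-day treatment of cells seeded at 10,000 per well. Codes: MOLT-4 A <0.1, B 0.1-1.0, C >1.0-3.0, D >3.0 μM; Caki-2 A <0.1, B 0.1-1.0, C >1.0-10.0, D >10.0 μM.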

Caki-2 cells = experiment: CTG (CellTiter-Glo) cell viability assay, Caki-2; details: Homo sapiens, 72 h, 3 day incubation, read-out: CTG Chempartner - Caki-2 3 day: Average external-IC50
How it was run: as §1

T1 sequence (Q07817 whole entry): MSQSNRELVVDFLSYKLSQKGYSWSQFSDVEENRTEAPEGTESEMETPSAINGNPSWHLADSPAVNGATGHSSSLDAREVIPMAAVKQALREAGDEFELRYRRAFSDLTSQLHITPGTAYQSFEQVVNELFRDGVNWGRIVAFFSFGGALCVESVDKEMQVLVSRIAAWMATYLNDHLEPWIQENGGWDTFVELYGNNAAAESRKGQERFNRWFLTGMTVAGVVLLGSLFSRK

Structure (SMILES) | Dmax (BCL-XL) | DC50 (BCL-XL) | pIC50 (MOLT-4 cells) | pIC50 (Caki-2 cells)
Cc1ncsc1-c1ccc([C@H](C)NC(=O)[C@@H]2C[C@@H](O)CN2C(=O)[C@@H](NC(=O)C2CCN(c3ccc(S(=O)(=O)NC(=O)c4nc(N5CCc6cccc(C(=O)Nc7nc8ccccc8s7)c6C5)ccc4-c4ccnc(N(C)C(C)C)c4C)cc3)CC2)C(C)(C)C)cc1 [I-332] | > 75% | 10 to 100 nM | 6.00 to 7.00 | < 5.00
C#Cc1ccc(CNC(=O)[C@@H]2C[C@@H](O)CN2C(=O)[C@@H](NC(=O)CCN(C)CCS(=O)(=O)NC(=O)c2nc(N(C)c3cc(C)c(Nc4nc5ccccc5s4)nn3)ccc2-c2cnn(CC34CC5CC(CC(C5)C3)C4)c2C)C(C)(C)C)cc1 [I-430] | > 75% | 10 to 100 nM | > 7.00 | < 5.00
Cc1ncsc1-c1ccc([C@H](C)NC(=O)[C@@H]2C[C@@H](O)CN2C(=O)[C@@H](NC(=O)C2CCN(c3cccc(S(=O)(=O)NC(=O)c4nc(N5CCc6cccc(C(=O)Nc7nc8ccccc8s7)c6C5)ccc4-c4cnn(CC5CCCCC5)c4C)c3)CC2)C(C)(C)C)cc1 [I-380] | > 75% | < 10 nM | > 7.00 | 5.00 to 6.00
C#Cc1ccc([C@H](C)NC(=O)[C@@H]2C[C@@H](O)CN2C(=O)[C@@H](NC(=O)CCCCS(=O)(=O)NC(=O)c2nc(N(C)c3cc(C)c(Nc4nc5ccccc5s4)nn3)ccc2-c2cnn(CC34CC5CC(CC(C5)C3)C4)c2C)C(C)(C)C)cc1 [I-368] | > 75% | 10 to 100 nM | > 7.00 | < 5.00
C#Cc1ccc(CNC(=O)[C@@H]2C[C@@H](O)CN2C(=O)[C@@H](NC(=O)C2CN(CCS(=O)(=O)NC(=O)c3nc(N(C)c4cc(C)c(Nc5nc6ccccc6s5)nn4)ccc3-c3cnn(CC45CC6CC(CC(C6)C4)C5)c3C)C2)C(C)(C)C)cc1 [I-433] | > 75% | 100 to 500 nM | 6.00 to 7.00 | < 5.00
C#Cc1ccc([C@H](COC)NC(=O)[C@@H]2C[C@@H](O)CN2C(=O)[C@@H](NC(=O)CCCCCS(=O)(=O)NC(=O)c2nc(N(C)c3cc(C)c(Nc4nc5ccccc5s4)nn3)ccc2-c2cnn(CC34CC5CC(CC(C5)C3)C4)c2C)C(C)(C)C)cc1 [I-476] | > 75% | < 10 nM | > 7.00 | < 5.00
Cc1cc(N(C)c2ccc(-c3cnn(CC45CC6CC(CC(C6)C4)C5)c3C)c(C(=O)NS(=O)(=O)CCCCCC(=O)N[C@H](C(=O)N3C[C@H](O)C[C@H]3C(=O)N[C@@H](C)c3ccc(C#N)cc3)C(C)(C)C)n2)nnc1Nc1nc2ccccc2s1 [I-464] | > 75% | 10 to 100 nM | 6.00 to 7.00 | < 5.00
C#Cc1ccc(C2(NC(=O)[C@@H]3C[C@@H](O)CN3C(=O)[C@@H](NC(=O)CCCCCS(=O)(=O)NC(=O)c3nc(N4CCc5cccc(C(=O)Nc6nc7cccnc7s6)c5C4)ccc3-c3cnn(CC4CCCCC4)c3C)C(C)(C)C)CC2)cc1 [I-482] | > 75% | < 10 nM | > 7.00 | < 5.00
Cc1cc(N(C)c2ccc(-c3cnn(CC45CC6CC(CC(C6)C4)C5)c3C)c(C(=O)NS(=O)(=O)CCCCCC(=O)N[C@H](C(=O)N3C[C@H](O)C[C@H]3C(=O)NCc3ccc(-c4scnc4C)cc3)C(C)(C)C)n2)nnc1Nc1nc2cccnc2s1 [I-451] | > 75% | 10 to 100 nM | 6.00 to 7.00 | < 5.00
Cc1ncsc1-c1ccc([C@H](C)NC(=O)[C@@H]2C[C@@H](O)CN2C(=O)[C@@H](NC(=O)CCS(=O)(=O)NC(=O)c2nc(N3CCc4cccc(C(=O)Nc5nc6ccccc6s5)c4C3)ccc2-c2cnn(CC3CCCCC3)c2C)C(C)(C)C)cc1 [I-311] | > 75% | 100 to 500 nM | > 7.00 | 5.00 to 6.00
Cc1cc(N(C)c2ccc(-c3cnn(CC45CC6CC(CC(C6)C4)C5)c3C)c(C(=O)NS(=O)(=O)c3ccc(N4CC(C(=O)N[C@H](C(=O)N5C[C@H](O)C[C@H]5C(=O)N[C@@H](C)c5ccc(-c6scnc6C)cc5)C(C)(C)C)C4)cc3)n2)nnc1Nc1nc2ccccc2s1 [I-434] | > 75% | 10 to 100 nM | > 7.00 | < 5.00
C#Cc1ccc(CNC(=O)[C@@H]2C[C@@H](O)CN2C(=O)[C@@H](NC(=O)CCCCCS(=O)(=O)NC(=O)c2nc(N3CCc4cccc(C(=O)Nc5nc6ccccc6s5)c4C3)ccc2-c2cnn(CC(C)(C)C)c2C)C(C)(C)C)cc1 [I-471] | > 75% | 10 to 100 nM | > 7.00 | < 5.00
Cc1cc(N(C)c2ccc(-c3cnn(CC4CCCC4)c3C)c(C(=O)NS(=O)(=O)c3ccc(N4CCC(C(=O)N[C@H](C(=O)N5C[C@H](O)C[C@H]5C(=O)N[C@@H](C)c5ccc(-c6scnc6C)cc5)C(C)(C)C)CC4)cc3)n2)nnc1Nc1nc2cccnc2s1 [I-457] | 50 to 75% | 500 to 1000 nM | 5.52 to 6.00 | < 5.00
Cc1ncsc1-c1ccc([C@H](C)NC(=O)[C@@H]2C[C@@H](O)CN2C(=O)[C@@H](NC(=O)CCCCc2ccc(NC(=O)c3nc(N4CCc5cccc(C(=O)Nc6nc7ccccc7s6)c5C4)ccc3-c3cnn(CC4CCCCC4)c3C)cc2)C(C)(C)C)cc1 [I-298] | < 50% | 500 to 1000 nM | 6.00 to 7.00 | 5.00 to 6.00
CCC(CC)Cn1ncc(-c2ccc(N3CCc4cccc(C(=O)Nc5nc6ccccc6s5)c4C3)nc2C(=O)NS(=O)(=O)c2ccc(N3CCC(C(=O)N[C@H](C(=O)N4C[C@H](O)C[C@H]4C(=O)N[C@@H](C)c4ccc(-c5scnc5C)cc4)C(C)(C)C)CC3)cc2)c1C [I-349] | > 75% | < 10 nM | > 7.00 | < 5.00
Cc1ncsc1-c1ccc([C@H](C)NC(=O)[C@@H]2C[C@@H](O)CN2C(=O)[C@H](c2cc(OC3CC4(C3)CN(C(=O)c3nc(N5CCc6cccc(C(=O)Nc7nc8ccccc8s7)c6C5)ccc3-c3cnn(CC5CCCCC5)c3C)C4)no2)C(C)C)cc1 [I-293] | < 50% | 500 to 1000 nM | 5.52 to 6.00 | 5.00 to 6.00
C#Cc1ccc(CNC(=O)[C@@H]2C[C@@H](O)CN2C(=O)[C@@H](NC(=O)CCc2ccc(S(=O)(=O)NC(=O)c3nc(N4CCc5cccc(C(=O)Nc6nc7ccccc7s6)c5C4)ccc3-c3cnn(CC(C)C)c3C)cc2)C(C)(C)C)cc1 [I-319] | 50 to 75% | > 1000 nM | < 5.52 | < 5.00
C#Cc1ccc([C@H](C)NC(=O)[C@@H]2C[C@@H](O)CN2C(=O)[C@@H](NC(=O)CCCCS(=O)(=O)NC(=O)c2nc(N(C)c3cc(C)c(Nc4nc5cccnc5s4)nn3)ccc2-c2cnn(CC34CC5CC(CC(C5)C3)C4)c2C)C(C)(C)C)cc1 [I-454] | > 75% | 10 to 100 nM | 5.52 to 6.00 | < 5.00
Cc1cc(N(C)c2ccc(-c3cnn(CC(C)(C)C)c3C)c(C(=O)NS(=O)(=O)c3ccc(N4CCC(C(=O)N[C@H](C(=O)N5C[C@H](O)C[C@H]5C(=O)N[C@@H](C)c5ccc(-c6scnc6C)cc5)C(C)(C)C)CC4)cc3)n2)nnc1Nc1nc2cccnc2s1 [I-456] | < 50% | > 1000 nM | < 5.52 | < 5.00
COc1nn(C)c2ccc([C@H](C)NC(=O)[C@@H]3C[C@@H](O)CN3C(=O)[C@@H](NC(=O)CCCCCS(=O)(=O)NC(=O)c3nc(N4CCc5cccc(C(=O)Nc6nc7cccnc7s6)c5C4)ccc3-c3cnn(CC4CCCCC4)c3C)C(C)(C)C)cc12 [I-489] | > 75% | 10 to 100 nM | > 7.00 | < 5.00
C#Cc1ccc(CNC(=O)[C@@H]2C[C@@H](O)CN2C(=O)[C@@H](NC(=O)CCNCCS(=O)(=O)NC(=O)c2nc(N3CCc4cccc(C(=O)Nc5nc6cccnc6s5)c4C3)ccc2-c2cnn(CC3CCCCC3)c2C)C(C)(C)C)cc1 [I-375] | > 75% | 10 to 100 nM | 5.52 to 6.00 | < 5.00
Cc1ncsc1-c1ccc([C@H](C)NC(=O)[C@@H]2C[C@@H](O)CN2C(=O)[C@H](NC(=O)CCCCCCCS(=O)(=O)NC(=O)c2nc(N3CCc4cccc(C(=O)Nc5nc6ccccc6s5)c4C3)ccc2-c2cnn(CC34CC5CC(CC(C5)C3)C4)c2C)C(C)(C)C)cc1 [I-284] | > 75% | < 10 nM | > 7.00 | 6.00 to 7.00
C#Cc1ccc(CNC(=O)[C@@H]2C[C@@H](O)CN2C(=O)[C@@H](NC(=O)CCCCS(=O)(=O)NC(=O)c2nc(N(C)c3cc(C)c(Nc4nc5ccccc5s4)nn3)ccc2-c2cnn(CC34CC5CC(CC(C5)C3)C4)c2C)C(C)(C)C)cc1 [I-369] | > 75% | 10 to 100 nM | > 7.00 | < 5.00
Cc1ncsc1-c1ccc([C@H](C)NC(=O)[C@@H]2C[C@@H](O)CN2C(=O)[C@@H](NC(=O)C2CCN(c3ccc(S(=O)(=O)NC(=O)c4nc(N5CCc6cccc(C(=O)Nc7nc8ccccc8s7)c6C5)ccc4-c4cccc(N(C)C(C)C)c4C)cc3)CC2)C(C)(C)C)cc1 [I-323] | 50 to 75% | 100 to 500 nM | 6.00 to 7.00 | < 5.00
Cc1ncsc1-c1ccc([C@H](C)NC(=O)[C@@H]2C[C@@H](O)CN2C(=O)[C@@H](NC(=O)N2CC(Cc3ccc(S(=O)(=O)NC(=O)c4nc(N5CCc6cccc(C(=O)Nc7nc8ccccc8s7)c6C5)ccc4-c4cnn(CC5CCCCC5)c4C)cc3)C2)C(C)(C)C)cc1 [I-346] | > 75% | 10 to 100 nM | 6.00 to 7.00 | < 5.00
Cc1ncsc1-c1ccc([C@H](C)NC(=O)[C@@H]2C[C@@H](O)CN2C(=O)[C@@H](NC(=O)C2CCC(O)(c3ccc(S(=O)(=O)NC(=O)c4nc(N5CCc6cccc(C(=O)Nc7nc8ccccc8s7)c6C5)ccc4-c4cnn(CC5CCCCC5)c4C)cc3)CC2)C(C)(C)C)cc1 (some centres unmarked) [I-314] | < 50% | > 1000 nM | 6.00 to 7.00 | 5.00 to 6.00
